In patent publication US8497361B2, “Topoisomerase binding probe and method of use” (priority 2010, dated 2013):

Experiments:
[1] = target: F. tularensis GyrB (Francisella tularensis subsp. tularensis, UniProt Q5NHE7); test: biochemical; assay type: binding
[2] = target: T1, E. coli gyrase A2B2 heterotetramer (Escherichia coli, UniProt P0AES6); test: Gyrase activity assay (supercoiling of relaxed plasmid DNA); assay type: biochemical; conditions: 50 μM compound, 0.5 μg relaxed DNA, 1 hour at 37° C., agarose gel
T1 construct: purchased Topogen

F. tularensis GyrB, sequence (Q5NHE7 1-805): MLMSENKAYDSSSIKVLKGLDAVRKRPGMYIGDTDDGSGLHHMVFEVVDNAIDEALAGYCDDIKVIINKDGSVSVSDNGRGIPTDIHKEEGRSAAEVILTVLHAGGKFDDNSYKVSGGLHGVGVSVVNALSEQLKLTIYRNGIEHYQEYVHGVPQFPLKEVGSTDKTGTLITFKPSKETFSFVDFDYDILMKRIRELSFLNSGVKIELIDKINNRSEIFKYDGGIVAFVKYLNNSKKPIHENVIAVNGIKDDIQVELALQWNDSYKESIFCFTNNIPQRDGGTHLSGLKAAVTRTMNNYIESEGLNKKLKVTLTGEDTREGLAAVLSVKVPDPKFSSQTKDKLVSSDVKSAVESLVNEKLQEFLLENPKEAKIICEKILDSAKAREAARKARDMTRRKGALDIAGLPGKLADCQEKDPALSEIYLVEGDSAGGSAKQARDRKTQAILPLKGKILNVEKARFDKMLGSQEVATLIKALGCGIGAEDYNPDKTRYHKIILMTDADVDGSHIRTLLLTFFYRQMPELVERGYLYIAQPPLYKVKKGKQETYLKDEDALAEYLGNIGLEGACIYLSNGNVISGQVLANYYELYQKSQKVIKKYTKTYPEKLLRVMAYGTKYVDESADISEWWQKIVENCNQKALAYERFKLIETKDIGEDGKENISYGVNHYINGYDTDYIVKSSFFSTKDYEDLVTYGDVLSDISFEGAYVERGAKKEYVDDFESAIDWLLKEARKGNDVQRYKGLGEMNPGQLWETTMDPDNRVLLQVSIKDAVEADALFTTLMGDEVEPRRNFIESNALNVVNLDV

Structure (SMILES)	Ki [1]	inhibition of supercoiling of relaxed DNA [2]
COc1cccc2c1C(=O)c1c(O)c3c(c(O)c1C2=O)C[C@@](O)(C(=O)CO)C[C@@H]3O[C@H]1C[C@H](N)[C@@H](O)[C@H](C)O1 [epirubicin]	386 nM	inhibit supercoiling to the level of the no gyrase control
CC(=O)[C@]1(O)Cc2c(O)c3c(c(O)c2[C@@H](O[C@H]2C[C@H](N)[C@H](O)[C@H](C)O2)C1)C(=O)c1ccccc1C3=O [idarubicin]	480 nM	less clear
COc1cccc2c1C(=O)c1c(O)c3c(c(O)c1C2=O)C[C@@](O)(C(=O)CO)C[C@@H]3O[C@H]1C[C@H](N)[C@H](O)[C@H](C)O1 [doxorubicin]	94 nM	inhibit supercoiling to the level of the no gyrase control
COc1cccc2c1C(=O)c1c(O)c3c(c(O)c1C2=O)C[C@@](O)(C(C)=O)C[C@@H]3O[C@H]1C[C@H](N)[C@H](O)[C@H](C)O1 [daunorubicin]	444 nM	less clear
